# Results from patent US20020151526A1, “Bile-acid prodrugs of L-dopa and their use in the sustained treatment of parkinsonism” (priority 2000, published 2002).
# Assays:
# [1] = cited from earlier work; for half-life: human, in vivo
# Human IBAT Transporter = target: T1, Human IBAT Transporter (Homo sapiens, UniProt Q12908); assay: Electrogenic transport in Xenopus oocytes expressing IBAT; format: cell-based; settings: relative to glycodeoxycholate, test compound 100 μM
# T1 sequence (Q12908 1-348): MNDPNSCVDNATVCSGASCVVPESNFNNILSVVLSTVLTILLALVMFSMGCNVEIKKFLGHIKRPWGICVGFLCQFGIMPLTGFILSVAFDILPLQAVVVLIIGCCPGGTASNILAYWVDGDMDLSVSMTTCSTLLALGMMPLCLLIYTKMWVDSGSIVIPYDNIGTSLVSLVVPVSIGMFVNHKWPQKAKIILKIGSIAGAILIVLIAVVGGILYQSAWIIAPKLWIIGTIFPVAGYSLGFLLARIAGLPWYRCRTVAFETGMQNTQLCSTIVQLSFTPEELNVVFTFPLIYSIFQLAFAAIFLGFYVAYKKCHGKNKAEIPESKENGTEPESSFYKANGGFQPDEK
# Description: Human IBAT Transporter cDNAs were subcloned into a modified pGEM plasmid that contains 5′ and 3′ untranslated sequences from the Xenopus β-actin gene. These sequences increase RNA stability and protein expression. Plasmid cDNA was linearized and used as template for in vitro transcription (Epicentre Technologies transcription kit, 4:1 methylated:non-methylated GTP).
# Xenopus oocyte isolation. Xenopus laevis frogs were anesthetized by immersion in Tricaine ([…] in deionized water) for 15 min. Oocytes were removed and digested in frog ringer solution (90 mM NaCl, 2 mM KCl, 1 mM MgCl2, 10 mM NaHEPES, pH 7.45, no CaCl2) with 1 mg/mL collagenase (Worthington Type 3) for 80-100 min with shaking. The oocytes were washed 6 times, and the buffer changed to frog ringer solution containing CaCl2(1.8 mM). Remaining follicle cells were removed if necessary. Cells were incubated at 16° C., and each oocyte injected with […] RNA in […] solution.
# Electrophysiology measurements. Transport currents were measured 2-14 days after injection, using a standard two-electrode electrophysiology set-up (Geneclamp 500 amplifier, Digidata 1320/PCLAMP software and ADInstruments hardware and software were used for signal acquisition). Electrodes ([…]) were microfabricated using a Sutter Instrument puller and filled with 3M KCl. The bath was directly grounded (transporter currents were less than 0.3 μA). Bath flow was controlled by an automated perfusion system (ALA Scientific Instruments, solenoid valves).
# For transporter pharmacology, oocytes were clamped at −60 to −90 mV, and continuous current measurements acquired using PowerLab Software and an ADInstruments digitizer. Current signals were lowpass filtered at 20 Hz and acquired at 4-8 Hz. All bath and drug-containing solutions were frog ringers solution containing CaCl2. Drugs were applied for 10-30 seconds until the induced current reached a new steady-state level, followed by a control solution until baseline currents returned to levels that preceded drug application. […]
Compound,half-life [1],oral bioavailability of levodopa ([1]; from conventional formulations of levodopa/carbidopa (e.g. Sinemet)),administered dose reaching the CNS intact ([1]; in patients),% Max. (GDC) response (Human IBAT Transporter)
C[C@@](Cc1ccc(O)c(O)c1)(NN)C(=O)O [carbidopa],~2 h,,,
"N[C@@H](Cc1ccc(O)c(O)c1)C(=O)O [levodopa, L-dihydroxyphenylalanine]",~2 h,84-99%,less than 1%,
"C[C@H](CCC(=O)N[C@@H](Cc1ccc2oc(=O)oc2c1)C(=O)O)[C@H]1CC[C@H]2[C@@H]3[C@H](O)C[C@@H]4C[C@H](O)CC[C@]4(C)[C@H]3C[C@H](O)[C@]12C [(104), Cholyl-Dopa-(3,4-carbonate)]",,,,25%
Cholyl-DOPA-(4-pivaloyloxymethyl) [(102)],,,,104%
"CC(CCC(=O)NC(Cc1ccc(O)c(O)c1)C(=O)O)C1CCC2C3C(O)CC4CC(O)CCC4(C)C3CC(O)C12C (stereo not shown) [(101), Cholyl-DOPA]",,,,0%
